Assay results reported in patent US12686809B2, “Methods and formulations for treating oil-containing porous media for oil recovery” (UNIVERSITY OF WYOMING, priority 2020, dated 2026).

Experiments:
Format in all cases: physicochemical
[1] = IFT between surfactant solutions and reservoir crude oil at ambient conditions (spinning drop); details: ~0.1 wt % in blank brine
Experimental: Spinning drop method: The spinning drop method was utilized to measure ultra-low IFT values. The instrumentation included a KRÜSS Spinning Drop Tensiometer was employed and the spinning drop method was performed as follows. A crude oil droplet was launched from a capillary plug into a capillary tube filled with the surfactant solution. While the glass capillary tube was rotating, the software-controlled instrument measured the IFT between oil and brine by analyzing the drop shape which depends on the balance between interfacial and centrifugal forces. At low rotational speeds, the IFT is the dominating force and the droplet is spherical in shape. In this case the software uses Young-Laplace equation to calculate IFT. When the angular velocity is high, the droplet is elongated (length is at least 4 times the diameter) and Vonnegut's equation is used to calculate the IFT.
(§1) Measurement of the IFT between surfactant solutions/reservoir oil at ambient conditions were first performed to, e.g., examine the impact of the hydrophobic chain length on the interfacial properties of cationic surfactants. For these measurements, a KRÜSS Spinning Drop Tensiometer was used.

[2] = Density difference between surfactant solution and crude oil; details: ~0.1 wt % in blank brine vs reservoir crude oil; ambient conditions
Experimental: Density: The density of the two phases (oil and brine; or oil and surfactant solution) was measured at atmospheric pressure and 22° C. using a DMA45 density meter from Anton Paar. The density of the two phases was also measured at reservoir conditions (120° C., 6000 psi) using an in-line density meter (DMA HPM, Anton Paar).
as §1

[3] = Critical micelle concentration by surface tension (pendant drop) at ambient conditions; details: surface tension against air
Experimental: Pendant drop method: The pendant drop method was mainly utilized when the density of the suspended phase is higher than that of the bulk phase. The same device as that used in the captive/rising bubble method is used for the pendant drop method. The method consists of a drop suspended from a needle to determine interfacial and surface tension of liquid/liquid and liquid/gas systems. The critical micelle concentration (CMC) of cationic surfactants was measured using surface tension measurements between the surfactant solutions and air at ambient conditions. […] Therefore, generally, the measurements were performed at a concentration above CMC (about 0.1 wt %), which is the one typically used in the field.
CMC measurements were performed to, e.g., investigate the effect of the hydrophobic chain length on the behavior of cationic surfactant molecules at the interface. […] As a baseline, the surface tension of blank brine was measured to be about 75.4 mN/m.
FIGS. 18A-18C show exemplary data for CMC measurements of surfactants with chloride heads and various alkyl chain lengths and depicting the variations of surface tension with concentration. Specifically, FIGS. 18A, 18B, and 18C show exemplary surface tension data for DTAC, CTAC, and TSAC.

[4] = Krafft and cloud point temperatures / solution cloudiness at ambient conditions; details: about 0.1 wt % in blank brine; for solution clarity/cloudiness (in words): about 22° C., ambient conditions
Experimental: Krafft and cloud point temperatures at ambient conditions: At ambient conditions, the Krafft point and cloud point temperatures were determined as follows. Fresh brine solutions containing about 0.1 wt % of surfactant solution were prepared and poured into 25 ml glass vials. The vials were capped and placed upright in a water bath and/or heater at an initial temperature of about 22° C. […] For each increment, it typically took at least 20 minutes for the brine to reach thermal equilibrium (temperature stabilization) with the water bath. The cloud and Krafft points were determined visually by recording the temperatures at which cloudiness was observed or disappeared. Images of the brine solutions were captured after each temperature stabilization.
The effect of the hydrophobic (alkyl) chain length on the stability and aqueous solubility/cloudiness of cationic surfactants was examined by measuring Krafft points at elevated pressure and temperature were performed. FIG. 15 is a series of exemplary images of solutions of cationic surfactants having a bromide head with increasing carbon atom numbers from left to right—DTAB (left panel), CTAB (center panel), and TODAB (right panel). For these tests, each surfactant was made into a surfactant solution (about 0.1 wt % in blank brine). The images were captured at about 22° C.
(left panel) and about 75° C. (right panel).
(§2) The cloud points of certain nonionic surfactants were measured at high pressure (about 6,000 psi) and temperature. […] (center panel) and about 99.9° C. (right panel), at a pressure of about 6,000 psi.

[5] = IFT between surfactant solutions and reservoir oil at reservoir conditions; details: about 100° C. and about 1,000 psi
Experimental: Captive/rising bubble method: The captive/rising bubble method was utilized to measure the dynamic IFT and contact angle at reservoir conditions. This method was performed as follows. The lighter phase was injected through a needle to form a bubble inside the heavier phase. The IFT between the two phases was calculated from the shape of the bubble using the Young-Laplace equation through Axisymmetric Drop Shape Analysis (ADSA). The state-of-the-art interfacial tension and contact angle (IFT/CA) apparatus adopted for the measurements is described and used by S. Saraji et al., Wettability of Supercritical Carbon Dioxide/Water/Quartz Systems: Simultaneous Measurement of Contact Angle and Interfacial Tension at Reservoir Conditions, Langmuir, 29 (2013) 6856-6866. This experimental setup can operate at elevated temperature (up to 200° C.) and pressure (up to 8000 psi). […] For contact angle measurement, a droplet was injected from the needle onto the solid substrate and monitored by capturing several images with time and analyzing them using ImageJ software.
Pendant drop method: The pendant drop method was mainly utilized when the density of the suspended phase is higher than that of the bulk phase. […] The critical micelle concentration (CMC) of cationic surfactants was measured using surface tension measurements between the surfactant solutions and air at ambient conditions. […]

[6] = Microemulsion phase behavior of surfactant solution/crude oil; details: for phase behavior (in words): about 0.1 wt % in blank brine/crude oil 1:1, about 80° C. versus ambient; for volume of surfactant phase formed between oil and brine: about 80° C.
Experimental: Microemulsion phase behavior: The microemulsion phase behavior of surfactants with different structures was investigated with respect to temperature. The effect of surfactant hydrophobic chain length on phase behavior was examined at ambient temperature (about 22° C.) and at elevated temperature (about 80° C.). For these experiments, glass pipettes were filled with brine/crude oil at a ratio of about 1:1 or surfactant solution/crude oil at a ratio of about 1:1. The pipettes were then sealed with a torch and shaken at the speed of about 250 rpm for about 24 hours (h). The pipettes were then monitored for several days and images were recorded.
Microemulsion phase behavior tests can generally be utilized to characterize surfactant stability. The phase behavior of surfactants can depend on distinct parameters such as temperature, surfactant concentration, and/or brine salinity. The effect of temperature on phase behavior was systematically investigated for various surfactants. Here, the phase behavior test was first performed on a pipette containing blank brine and the crude oil.
FIG. 13 is a series of exemplary images showing the phase behavior of cationic surfactants with a chloride head—TOAC, DTAC, CTAC, and TSAC—at ambient temperatures (left panel) and at about 80° C. (right panel). FIG. 14 is each a series of exemplary images showing the phase behavior of cationic surfactants with a bromide head—TOAB, DTAB, CTAB, and TODAB—at ambient temperatures (left panel) and at about 80° C. (right panel). For these tests, each surfactant was made into a surfactant solution (about 0.1 wt % in blank brine).

[7] = Krafft and cloud point temperatures at reservoir conditions (IFT cell, 6,000 psi); details: about 0.1 wt % in blank brine; about 6,000 psi
Experimental: as §2
(right panel), at a pressure of about 6,000 psi.

solution clarity/cloudiness (in words) [4] | IFT reduction relative to the blank brine [5] | phase behavior (in words) [6] | volume of surfactant phase formed between oil and brine [6] | temperature at which the solution became and stayed clear ([4]; heated while stirring, ambient pressure) | Krafft point [7] | Compound | γ (interfacial tension surfactant solution/reservoir oil) [1] [mN/m] | Δρ (change in density) [2] [g/mL] | CMC [3]
already clear at ambient conditions | about 7 mN/m | less influenced by temperature |  |  |  | CCCCCCCC[N+](C)(C)C.[Br-] [TOAB, Trimethyloctylammonium bromide] | 8.4 | 0.3823 | 
clearest |  | less influenced by temperature |  |  |  | CCCCCCCC[N+](C)(C)C.[Cl-] [TOAC, Trimethyloctylammonium chloride] | 5.05 | 0.3822 | 
 |  | poor solubility | about 0.1 cm^3 |  |  | CCCCCCCCCCCCCCCCCC[N+](C)(C)C.[Br-] [TODAB, Trimethyloctadecylammonium bromide] | 0.07 | 0.3831 | 
cloudiest |  | poor solubility | about 0.1 cm^3 | about 75 °C | about 40 °C | CCCCCCCCCCCCCCCCCC[N+](C)(C)C.[Cl-] [TSAC, Trimethyloctadecylammonium chloride] |  | 0.3829 | about 0.001 wt %

More lines, now with the values behind:

Compound | solution clarity/cloudiness (in words) [4] | IFT reduction relative to the blank brine [5] | phase behavior (in words) [6] | volume of surfactant phase formed between oil and brine [6] | temperature at which the solution became and stayed clear ([4]; heated while stirring, ambient pressure) | Krafft point [7] | γ (interfacial tension surfactant solution/reservoir oil) [1] [mN/m] | Δρ (change in density) [2] [g/mL] | CMC [3]
CCCCCCCCCCCCCCCC[N+](C)(C)C.[Br-] [CTAB, Hexadecyltrimethylammonium bromide] |  |  |  |  |  |  | 0.15 | 0.382 | 
CCCCCCCCCCCCCCCC[N+](C)(C)C.[Cl-] [CTAC, Cetyltrimethyl ammonium chloride] |  |  |  |  |  |  | 0.11 | 0.3834 | about 0.003 wt %
CCCCCCCCCCCC[N+](C)(C)C.[Br-] [DTAB, Dodecyltrimethylammonium bromide] |  |  |  |  |  |  | 1.1 | 0.3835 | 
CCCCCCCCCCCC[N+](C)(C)C.[Cl-] [DTAC, Dodecyltrimethylammonium chloride] |  |  |  |  |  |  | 1.6 | 0.3826 | about 0.005 wt %
